In US9404192B2, “Highly stable electrolytic water with reduced NMR half line width” (priority 2007, dated 2016):

System: Reconstructed Human Epidermids (RHEs)
Experiment: trans-epithelial electrical resistance (TEER) testing
Format: cell-based
Settings: SDS 0.1% solution on RHE, FIG. 3
Protocol: The formulations described in Tables B-F were tested for their effect on trans-epithelial electrical resistance according to the following procedure.
1 ml of saline solution is directly applied on the tissue placed in a 6 well plate containing 4 ml of saline solution as well.
The instrument Millicell-ERS (range 0-20 kΩ) is placed with the two electrodes in the two chambers and the measure is recorded directly and reported in the laboratory note book.
Five measurements for each tissue have been done: because of the variability within the tissues the measurement done at t=0 has been taken as basal value and reference of each single tissue.
At the arrival the tissues have been placed in 6 well plates with maintenance medium (SkinEthic) for 2 hours before the TEER measurements.
The basal TEER value is measured on all the tissue as described in the method.
The tissues have been recovered in maintenance medium (1 ml) and the test items have been applied at the dose of 50 μl.
Tissues have been finally incubated at 37° C. in 5% CO2 incubator.
The tissues have been rinsed with saline solution and the second TEER measurement, corresponding to the 24 h exposure, has been performed.
The RHEs have been recovered in fresh maintenance medium (1 ml) for a 24 h post incubation time. […]

Q: With `CCCCCCCCCCCCOS(=O)(=O)[O-].[Na+]` [sodium dodecyl sulphate] as the compound, how does the TEER read?
A: The TEER was “strong decrease of TEER”.
